In the supplement of paper PMC5579334:
± gives the standard deviation of the averaged measurements.

What was measured:
YST-1 [1] = test: % inhibition of CellTiter-Glo viability at highest tested concentration (72 h), relative to DMSO and benzethonium chloride controls; higher = more inhibition
Outline: (§1)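 Viability was scored by CellTiter-Glo ATP luminescence, scaled from vehicle to positive-control wells, with duplicates averaged where present. The cells, MPNST lines and primary human Schwann cells at 750–1000 per well, sat 72 h at 37 °C, 5% CO2, in 384-well plates preprinted with each compound at five concentrations in 10-fold steps. Four-parameter logistic fits were run on the data. These fits give drug sensitivity score and relative IC50 censored at the top concentration, and percent inhibition is reported at the top concentration.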

ST8814 [2] = test: as above
Outline: as §1

HS-Sch-2 [3] = test: as above
Outline: as §1

[4] = test system: HSC1 (primary human Schwann cells); test: as above
Outline: as §1

S462 [5] = test: as above
Outline: as §1

STS26T [6] = test: as above
Outline: as §1

S1507-2 [7] = test: as above
Outline: as §1

[8] = test system: HSC2 (primary human Schwann cells); test: as above
Outline: as §1

HS-PSS [9] = test: as above
Outline: as §1

YST-1 [10] = test: drug sensitivity score (DSS, CellTiter-Glo viability, 72 h) (DSS (dimensionless)); higher = more sensitive; extreme values may be limits of the assay
Outline: as §1

ST8814 [11] = test: as above
Outline: as §1

HS-Sch-2 [12] = test: as above
Outline: as §1

[13] = test system: HSC1 (primary human Schwann cells); test: as above
Outline: as §1

S462 [14] = test: as above
Outline: as §1

STS26T [15] = test: as above
Outline: as §1

S1507-2 [16] = test: as above
Outline: as §1

[17] = test system: HSC2 (primary human Schwann cells); test: as above
Outline: as §1

HS-PSS [18] = test: as above
Outline: as §1

ST8814 [19] = test: drug sensitivity score (DSS, CellTox-Green cytotoxicity, 72 h) (DSS (dimensionless)); higher = more cytotoxic; extreme values may be limits of the assay
Outline: (§2)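 MPNST cell lines and primary human Schwann cells were incubated 72 h at 37 °C in 384-well plates holding five 10-fold compound dilutions. CellTox-Green was added before seeding at a final 1:1000 dilution and reported fluorescence from DNA released by disrupted cells. Signals were scaled to vehicle and positive-control wells, and cultures failing plate quality control were dropped. Drug sensitivity score and relative IC50 come from four-parameter logistic fits, with IC50 censored at the top concentration.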

[20] = test system: HSC1 (primary human Schwann cells); test: as above
Outline: as §2

STS26T [21] = test: as above
Outline: as §2

S1507-2 [22] = test: as above
Outline: as §2

[23] = test system: HSC2 (primary human Schwann cells); test: as above
Outline: as §2

HS-PSS [24] = test: as above
Outline: as §2

SMILES | % inhibition (YST-1 [1]) [%] | % inhibition (ST8814 [2]) [%] | % inhibition (HS-Sch-2 [3]) [%] | % inhibition [4] [%] | % inhibition (S462 [5]) [%] | % inhibition (STS26T [6]) [%] | % inhibition (S1507-2 [7]) [%] | % inhibition [8] [%] | % inhibition (HS-PSS [9]) [%] | drug sensitivity score (YST-1 [10]) | drug sensitivity score (ST8814 [11]) | drug sensitivity score (HS-Sch-2 [12]) | drug sensitivity score [13] | drug sensitivity score (S462 [14]) | drug sensitivity score (STS26T [15]) | drug sensitivity score (S1507-2 [16]) | drug sensitivity score [17] | drug sensitivity score (HS-PSS [18]) | drug sensitivity score (ST8814 [19]) | drug sensitivity score [20] | drug sensitivity score (STS26T [21]) | drug sensitivity score (S1507-2 [22]) | drug sensitivity score [23] | drug sensitivity score (HS-PSS [24])
CNC(=O)c1cc(Oc2ccc(NC(=O)Nc3cc(C(C)(C)C)nn3-c3ccc4ncccc4c3)c(F)c2)ccn1 [Rebastinib] (max concentration tested 1000 nM) | 0.76 | -2.38 | -12.3 | 0.317 | -0.0982 ± 1.4 | -1.27 | -4.17 ± 6.4 | -5.07 | -1.59 | 0 | 0 | 0 | 0 | 0 | 0 | 0 | 0 | 0 | 0 | 0 | 0 | 0 | 0 | 0
CCOc1cc2ncc(C#N)c(Nc3ccc(OCc4ccccn4)c(Cl)c3)c2cc1NC(=O)/C=C/CN(C)C [Neratinib] (max concentration tested 1000 nM) | 46.7 | 40.5 | 65.3 | 70.6 | 64.8 ± 7.9 | 38.6 | 49.1 ± 15 | 75.8 | 65.7 | 2.34 | 3.74 | 5.51 | 4.77 | 5.12 ± 0.93 | 3.09 | 4 ± 1.6 | 5.85 | 6.05 | 0 | 0 | 0 | 0 | 0 | 0
CN(C)CCOc1ccc(/C(=C(/CCCl)c2ccccc2)c2ccccc2)cc1 [Toremifene] (max concentration tested 10000 nM) | 26.3 | 34.5 | 37.2 | 21.8 | 22.3 ± 3 | 27.1 | 32.2 ± 11 | 55.6 | 48.1 | 0.84 | 1.19 | 1.63 | 1.48 | 0.537 ± 0.16 | 0.998 | 1.26 ± 0.65 | 3.28 | 2.31 | 5.11 | 0 | 0.141 | 1.36 ± 0.28 | 0 | 0
